Assay results: patent US20240360186A1, “Treatment Of Integrin-Related Disorders With Stapled Peptides” (Institute For Cancer Research d/b/a The Research Institute …, priority 2021, published 2024)
“Also recorded” adds a separate entry of the source. Bridge positions count the residues as written; N and C are the ends. Square brackets hold non-standard residues; d marks the D form. Peptide text beside a SMILES is read from it. S5 = C=CCCC[C@](C)(N)C(=O)O

What was measured:
talin rod R7R8 domains = target: T1, talin rod R7R8 domains (Mus musculus, UniProt P26039); assay: Fluorescent polarization (FP) binding assay, talin rod R7R8; conditions: S-TBS versus TBS, from FP Kd values
T1 construct: talin rod R7R8 and talin head (residues 1-430) were measured using fluorophore-labeled peptides and recombinantly expressed, purified talin proteins; made in house
Description: (§1) To assess the binding affinities of S-TBS with talin, the Kd of TBS and S-TBS peptides with talin rod R7R8 and talin head (residues 1-430) were measured using fluorophore-labeled peptides and recombinantly expressed, purified talin proteins by FP assays. […] This gain of affinity may be attributed to the C8 staple as it stabilizes the helical structure of TBS, and the enhanced hydrophobic interaction between S-TBS and talin rod. The enhanced binding of S-TBS to talin further validates the design strategy of using stapled peptides as a potent competitive inhibitor.
(§2) Fluorescent Polarization: Mixtures were prepared of purified talin proteins at a series concentration (R7R8: 0.2 μM to 20 μM; THD/b3-THD: 5 μM to 100 μM), or buffer only, with 20 nM FITC-labeled S-TBS (New England Peptide) in a buffer containing 20 mM HEPES, pH 7.5, 100 mM NaCl, and 2 mM DTT. After five minutes of incubation, 20 μl of the reaction mix was added to individual wells of a 384-well assay plate (Corning) and then measured fluorescence polarization at room temperature using a plate reader. A […] as emission polarization filters. FP signals were normalized against buffer-only background and then fit to a single-site (saturating) binding model using SigmaPlot (Systat Software).

[1] = target: T2, talin head (residues 1-430) (Mus musculus, UniProt P26039); assay: Fluorescent polarization (FP) binding assay, talin head
T2 construct: talin rod R7R8 and talin head (residues 1-430) were measured; made in house
Description: as §1, §2

CHO-A5 cells = assay: Cell permeability assay (flow cytometry uptake of fluorophore-labelled peptide); format: in vitro ADME
Description: Assessing membrane permeability: CHO-A5 cells were treated with FAM-labelled WT-TBS (1, 10, and 50 μM), or with FITC-labelled stapled-TBS (1, 10, and 50 μM), and incubated for 30 minutes at 37° C. The cells were washed twice with phosphate-buffered saline (PBS), harvested in trypsin-EDTA, and centrifuged at 2,000 rpm for 5 minutes. The cells were resuspended in PBS and quantified with an LSR flow cytometer using 30,000 cells per measurement.
A common challenge for peptidomimetic drugs that target intracellular proteins is the poor cell membrane permeability. To assess the effect of the C8 staple on cell permeability, FITC-labeled S-TBS were incubated with CHO cells at various concentration and examined S-TBS uptake by flow cytometry. […] The assay was then performed using lower doses of peptides and quantified the signals for statistical analyses. […] In contrast, TBS requires a concentration of at least 5 μM for cell uptake (FIG. 3, Panel B).
Cell permeability assay: CHO-A5 cells were plated in 6-well dishes, and then treated with fluorophore labeled TBS or S-TBS peptides at indicated concentrations for 30 minutes at 37° C. The cells were then washed twice with phosphate-buffered saline (PBS), detached by adding a mixture of trypsin and […] (“trypsin-EDTA”) and harvested by spinning at 2,000 rpm for 5 minutes. The cells were resuspended in PBS and quantified with an LSR flow cytometer (525/50 filter, 488 nm laser) using 30,000 cells per measurement.

integrin αIIbβ3 [2] = assay: Integrin activation assay, wild-type talin head domain; format: cell-based; conditions: CHO-A5 cells expressing GFP-tagged wild-type talin head domain; TBS 100 μM, S-TBS 10 and 100 μM, 30 minutes; PAC1 flow cytometry
Description: (§3) Assessing integrin activation: CHO-A5 cells were transfected with GFP-tagged talin-head domain (residues 1-430, WT or W359A) and incubated for 24 hours at 37° C. The cells were subsequently treated with WT-TBS at 100 μM or Staple-TBS (at 10 and 100 μM) for 30 minutes at 37° C. and washed twice with PBS, harvested in trypsin-EDTA, and centrifuged at 2,000 rpm for 5 minutes. The cells were incubated in Tyrode's buffer (136.9 mM NaCl, 10 mM HEPES, 5.5 mM glucose, 11.9 mM NaHCO3, 2.7 mM KCl, 0.5 mM CaCl2), 1.5 mM MgCl2, and 0.4 mM NaH2PO4, pH 7.4) containing PAC1 antibody for 1 hour at 30° C. and then stained with Alexa 647 (goat anti-mouse IgM) for 30 minutes at RT. The cells were quantified with an LSR flow cytometer using 30,000 cells per measurement.
(§4) The effect of S-TBS on talin-induced activation of integrin αIIbβ3 was examined. CHO-A5 cells that stably express integrin αIIbβ3 were transfected with a green fluorescent protein-tagged talin head domain, treated with S-TBS or TBS, and then subjected flow cytometry analysis for integrin αIIbβ3 activity. […]
(§5) Integrin activation assays: CHO-A5 cells were transfected with talin-head domain, wild-type or W359A, and incubated for 24 hours at 37° C. […] The cells were quantified with a Beckton, Dickenson & Co. Biosciences LSR flow cytometer (660/20 filter, 640 nm laser) using 30,000 cells per measurement.

integrin αIIbβ3 [3] = assay: Integrin activation assay, inactive talin head mutant THD-W359A; format: cell-based; conditions: CHO-A5 cells transfected with THD-W359A; TBS 100 μM, S-TBS 10 and 100 μM; PAC1 flow cytometry
Description: as §3, §4, §5

HEK-293 cells = assay: Cell toxicity assay, HEK-293; format: cell-based; conditions: 40 μM, treated one hour then washed away, viability at 24 and 48 hours
Description: (§6) The cell toxicity of the peptides was then examined. HEK, MCF-7, and HeLa were used. Cells were treated with S-TBS 40 μm for one hour. The S-TBS was then washed away and the viability measured at 24 and 48 hours. No impact on HEK, MCF-7, and HeLa cell growth was observed.

MCF-7 cells = assay: Cell toxicity assay, MCF-7; format: cell-based; conditions: 40 μM, treated one hour then washed away, viability at 24 and 48 hours
Description: as §6

HeLa cells = assay: Cell toxicity assay, HeLa; format: cell-based; conditions: 40 μM, treated one hour then washed away, viability at 24 and 48 hours
Description: as §6

CHO cell = assay: Cell toxicity, CHO cell growth; format: cell-based
Jurkat T-cell = assay: Cell toxicity, Jurkat T-cell growth; format: cell-based

T1 sequence (P26039 1359-1659 limits assumed): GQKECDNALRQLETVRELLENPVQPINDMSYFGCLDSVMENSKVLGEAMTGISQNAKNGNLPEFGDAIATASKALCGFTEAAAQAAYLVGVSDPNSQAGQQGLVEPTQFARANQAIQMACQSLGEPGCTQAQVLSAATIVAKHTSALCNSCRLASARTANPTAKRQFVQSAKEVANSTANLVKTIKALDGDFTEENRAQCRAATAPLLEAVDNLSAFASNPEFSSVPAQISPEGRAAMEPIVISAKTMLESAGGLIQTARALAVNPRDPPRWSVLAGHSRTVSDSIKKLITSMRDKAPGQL

Structure (SMILES): CC[C@H](C)[C@H](NC(=O)[C@H](CC(=O)O)NC(=O)[C@H](CCC(=O)O)NC(=O)[C@@H](N)CC(N)=O)C(=O)N[C@@H](CC(=O)O)C(=O)N[C@@H](CCC(N)=O)C(=O)N[C@@H](CCSC)C(=O)N[C@@H](Cc1ccccc1)C(=O)N[C@@H](CO)C(=O)N[C@H](C(=O)N[C@@H](CC(C)C)C(=O)N[C@@H](CC(C)C)C(=O)NCC(=O)N[C@@H](CCC(=O)O)C(=O)N[C@@]1(C)CCCC=CCCC[C@@](C)(C(=O)N[C@@H](CCC(N)=O)C(=O)N[C@@H](CO)C(=O)O)NC(=O)[C@H](CC(C)C)NC(=O)[C@H](CC(C)C)NC(=O)[C@H](CC(=O)O)NC1=O)[C@@H](C)O [S-TBS, (Stp(15,19))H2N-NEDIDQMFSTLLGE(S5)DLL(S5)QS-OH] (H-NEDIDQMFSTLLGE[S5]DLL[S5]QS-OH; staple 15-19)
- fold stronger binding to R7R8 than TBS (talin rod R7R8 domains): 6 fold
- Kd ([1]; FP assay, fluorophore-labeled peptide, purified recombinant talin head (residues 1-430), read-out: Kd, talin head domain): 30.3 ± 4.8 µM
- fold stronger binding to talin head than TBS ([1]; S-TBS versus TBS, from FP Kd values): 3.5 fold
- fluorescence signal of treated cells (peptide uptake) compared with fluorophore-labelled TBS (CHO-A5 cells; CHO cells, 1, 10 and 50 μM, 30 minutes at 37° C., FITC-labeled S-TBS): significantly stronger signal
- concentration giving significant cell uptake (CHO-A5 cells; CHO-A5 cells, lower doses, flow cytometry permeability index, fluorophore-labelled peptides): 0.5 µM
- integrin αIIbβ3 activity (talin-induced activation) (integrin αIIbβ3 [2]): significantly suppresses integrin αIIbβ3 activity in a dose-dependent manner
- integrin αIIbβ3 activity with inactive talin head THD-W359A (integrin αIIbβ3 [3]): No inhibitory effect
- cell toxicity (viability / cell growth), HEK (HEK-293 cells): No impact; also recorded: minimal cell toxicity
- cell toxicity (viability / cell growth), MCF-7 (MCF-7 cells): No impact; also recorded: minimal cell toxicity
- cell toxicity (viability / cell growth), HeLa (HeLa cells): No impact; also recorded: minimal cell toxicity
- impact on CHO cell growth (CHO cell): no impact
- impact on Jurkat T-cell growth (Jurkat T-cell): no impact
